Reference: publication PMC11714206, “Massively Parallel Screening of Toll/Interleukin‐1 Receptor (TIR)‐Derived Peptides Reveals Multiple Toll‐Like Receptors (TLRs)‐Targeting Immunomodulatory Peptides” (Advanced Science, 2024)
Where no end group is shown, it is not given here.

Experiments:
[1] = Serum stability analysis; assay type: in vitro ADME; details: human serum (Sigma H4522), 1 mM peptide in water mixed 1:1 (v/v) with serum, 37 °C, SDS‐PAGE, Coomassie band intensity (ImageJ); for half-life at 0.5 mM: 0–72 h
Experimental: (§1) Figure 6 Molecular characterization of TDIPs. (a) Co‐immunoprecipitation of TIR domains and TDIPs. Lysates of HEK293T cells expressing FLAG‐tagged TIR domains were incubated with the indicated TDIPs. Peptides were blotted with an antibody against the penetratin sequence. Created with BioRender.com. (b) Fluorescence polarization binding assay of the Cy5‐labeled TDIP1 against TIR domains of Myd88, TRAM, and MAL. Error bars represent ± SD (n = 3). (c) Human serum stability (half‐life) of the TDIPs was measured. The percentage of the remaining peptide was quantified up to 72 h. (d) The secondary structure of the selected TDIPs was determined by circular dichroism. […] (e) TDIP1 and its truncates were compared for inhibition of TLR4 signaling by using HEK‐Blue^TM hTLR4 cells. Data are presented as mean ± SD. ^****p < 0.0001. All significance is versus the LPS‐treated CP group. n.s., not significant.
The first step of the serum stability analysis was performed as previously described^[ [60] ^] with a minor modification. Human serum (Sigma‐Aldrich, H4522) was thawed on ice and centrifuged at 18 000 × g for 10 min at 4 °C to remove lipids. The supernatant was incubated at 37 °C for 15 min to activate the proteins. Each peptide was prepared at a concentration of 1 mM in ultrapure water and mixed with human serum in a 1:1 (v/v) ratio. The mixed solutions were incubated at 37 °C for various periods (0, 1, 3, 6, 12, 24, 48, and 72 h). A mixture of ultrapure water and human serum was used as the blank. A total of 3 µg of the peptide was loaded on an SDS–polyacrylamide gel and stained with InstantBlue Coomassie Protein Stain (Abcam). The intensity of the remaining peptide bands was quantified using ImageJ and plotted.

[2] = set-up: method as in PMID 19661804; details: possibly due to late administration; cited from earlier work
Source text: (§2) Treatment of macrophage cells with synthetic TDIPs containing a cell‐penetrating moiety suppressed TLR4‐dependent inflammatory pathways in a dose‐dependent manner. Moreover, the selected TDIPs exerted broad‐spectrum TLR‐inhibitory effects by inhibiting interactions between TIR domain‐containing proteins, which enhanced the therapeutic efficacy in the murine sepsis model. Although we applied TDIP simultaneously with LPS, the timing of TLR inhibitor administration remains a critical consideration. ...

[3] = test system: polymicrobial sepsis model; set-up: method as in PMID 18305095; details: administration 3 h before or 6 h after CLP surgery; cited from earlier work
Source text: as §2

[4] = biological target: T1, MAL^TIR (Homo sapiens, UniProt P58753); assay: T‐Surf phage library (P8 and P3) selection against MAL^TIR, four rounds, NGS read counts; assay type: binding; details: for Rank (after): P3_MAL: rank by count after grouping; for Rank (before): P3_MAL: rank by count before grouping; for P3_MAL Rank (after) / P3_MAL Rank (before): P3 library; for P8_MAL Rank (after) / P8_MAL Rank (before): P8 library
T1 construct: MAL (residues 79–221); 6xHis; made in house; host or cells: E. coli BL21 (DE3)
Summary of the method: (§3)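 Read counts come from NGS of phage pools after the fourth selection round, barcoded by 20-cycle PCR and filtered for quality ≥30. Each round: phage incubated 1 h at RT on immobilised TIR protein (5 µg mL^−1, BSA-blocked), washed, HCl-eluted and amplified in E. coli TG1.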

[5] = biological target: T2, MyD88^TIR (Homo sapiens, UniProt Q99836); assay: T‐Surf phage library (P8 and P3) selection against MyD88^TIR, four rounds, NGS read counts; assay type: binding; details: for Population: 4th round of selection against MyD88 TIR, share of NGS reads; for P3_MyD88 Rank (after) / P3_MyD88 Rank (before): P3 library
T2 construct: MyD88 (residues 148–296); 6xHis; made in house; host or cells: E. coli BL21 (DE3)
Summary of the method: as §3

[6] = test system: human conjunctival epithelial cells and rabbit cornea; details: cited from earlier work
[7] = biological target: T3, TIR domain of MyD88 (Homo sapiens, UniProt Q99836); assay: Fluorescence polarization (FP) assay, MyD88 TIR; assay type: binding; details: Cy5‐labeled TDIP1 50 nM, TIR domain diluted 1:1 from 40 µM, 30 min RT, ± SD, n = 3, read-out: apparent Kd against MyD88
T3 construct: MyD88 (residues 148–296); 6xHis; made in house; host or cells: E. coli BL21 (DE3)
Experimental: as §1
(§4) Fluorescence polarization assays were carried out using a 384‐well black non‐binding microplate (Corning, CLS4514). TDIP1 peptide was synthesized by ANYGEN with N‐terminal Cy5 at >95% purity. The lyophilized peptide was reconstituted in ultrapure water (Invitrogen) to a concentration of 1 mM. The peptide was diluted with 10× PBS to make a final solution of 100 nM. […] After mixing the samples, the plate was incubated for 30 min at RT and read using an Infinite M1000 (Tecan, Mannedorf, Switzerland).

[8] = biological target: T4, TIR domain of MAL (Homo sapiens, UniProt P58753); assay: Fluorescence polarization (FP) assay, MAL TIR; assay type: binding; details: Cy5‐labeled TDIP1 50 nM, TIR domain diluted 1:1 from 40 µM, 30 min RT, ± SD, n = 3, read-out: apparent Kd against MAL
T4 construct: MAL (residues 79–221); 6xHis; made in house; host or cells: E. coli BL21 (DE3)
Experimental: as §1, §4

[9] = biological target: T5, TIR domain of TRAM (Homo sapiens, UniProt Q86XR7); assay: Fluorescence polarization (FP) assay, TRAM TIR; assay type: binding; details: Cy5‐labeled TDIP1 50 nM, TIR domain diluted 1:1 from 40 µM, 30 min RT, ± SD, n = 3, read-out: apparent Kd against TRAM
T5 construct: purified TIR domains of MyD88, TRAM, and MAL
Experimental: as §1, §4

[10] = P3_MyD88: rank by count after grouping
[11] = P3_MyD88: rank by count before grouping
[12] = P3_MyD88 pool: P3 T-Surf phage library
[13] = selection against MAL TIR, rank by count after grouping
[14] = selection against MAL TIR, rank by count before grouping
[15] = P8_MyD88 pool: P8 T-Surf phage library
[16] = selection against MyD88 TIR, rank by count after grouping
[17] = selection against MyD88 TIR, rank by count before grouping
[18] = selection against MAL, rank after grouping
[19] = selection against MAL, rank before grouping
[20] = selection against MyD88, rank after grouping
[21] = selection against MyD88, rank before grouping

T1 sequence (P58753 79-221): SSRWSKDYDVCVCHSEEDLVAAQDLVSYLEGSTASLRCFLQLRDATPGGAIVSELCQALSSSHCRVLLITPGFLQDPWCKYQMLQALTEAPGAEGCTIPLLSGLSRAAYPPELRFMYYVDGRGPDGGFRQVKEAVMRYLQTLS
T2 sequence (Q99836 148-296): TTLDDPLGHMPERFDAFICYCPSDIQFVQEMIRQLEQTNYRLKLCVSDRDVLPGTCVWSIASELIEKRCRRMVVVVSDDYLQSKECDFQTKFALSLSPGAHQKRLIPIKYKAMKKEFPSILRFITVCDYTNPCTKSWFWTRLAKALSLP
T5 sequence (Q86XR7 73-229 limits assumed): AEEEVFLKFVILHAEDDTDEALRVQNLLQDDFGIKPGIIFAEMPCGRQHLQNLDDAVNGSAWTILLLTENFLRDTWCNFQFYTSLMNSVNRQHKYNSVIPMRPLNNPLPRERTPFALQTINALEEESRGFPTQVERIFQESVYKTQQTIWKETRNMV
T4 sequence (P58753 79-221): as the sequence (P58753 79-221) above
T3 sequence (Q99836 148-296): as the sequence (Q99836 148-296) above

RQIKIWFQNRRMKWKKTFLGHLYNALVQAGIH [TDIP5]
half-life at 0.5 mM [1]: ~6 h

CCCCCC/C=C\CCCCCCCCCC(=O)N[C@H]1[C@H](OC[C@H]2O[C@H](OP(=O)(O)O)[C@H](NC(=O)CC(=O)CCCCCCCCCCC)[C@@H](OCCCCCCCCCC)[C@@H]2O)O[C@H](COC)[C@@H](OP(=O)(O)O)[C@@H]1OCC[C@@H](CCCCCCC)OC [Eritoran tetrasodium]
outcome in clinical trials [2]: failed in clinical trials

CCN(CC)CCCC(C)Nc1ccnc2cc(Cl)ccc12 (stereo not shown) [chloroquine]
survival in polymicrobial sepsis model [3]: markedly improved survival

RLLKWKEALHQFHSW
Rank (after) [4]: 136 | Rank (before) [4]: 436 | Rank (after) [5, 10]: 130 | Rank (before) [5, 11]: 708

YLKWGDPYFWSKLRYAM
Rank (after) [4]: 159 | Rank (before) [4]: 519 | Population [5, 12]: 0.00466%

RNFVAYLFQALANKGI
Population ([4]; P8_MAL pool: P8 T-Surf phage library, 4th round of selection against MAL TIR, share of NGS reads): 0.0034% | P8_MyD88 Rank (after) ([5]; P8 library, selection against MyD88, rank after grouping): 483 | P8_MyD88 Rank (before) ([5]; P8 library, selection against MyD88, rank before grouping): 3397

WFWDKLIYALSRNPH
P3_MAL Rank (after) [4, 13]: 278 | P3_MAL Rank (before) [4, 14]: 712 | Rank (after) [5, 10]: 155 | Rank (before) [5, 11]: 549

ELDFSHFWLFDGQAGGEA
P8_MAL Rank (after) [4, 13]: 200 | P8_MAL Rank (before) [4, 14]: 2049 | Population [5, 15]: 0.00771%

LQNQWKLALTKVASL
Rank (after) [4]: 132 | Rank (before) [4]: 327 | Rank (after) [5, 10]: 100 | Rank (before) [5, 11]: 374

penetratin
cellular and tissue toxicity compared with other CPPs such as TAT and polyarginine [6]: lower cellular and tissue toxicity | cellular uptake [6]: excellent cellular uptake

KEVEGWRDALTKWRA
P3_MAL Rank (after) ([4]; 4R selection against MAL, rank after grouping): 652 | P3_MAL Rank (before) ([4]; 4R selection against MAL, rank before grouping): 3567 | P3_MyD88 Rank (after) [5, 16]: 250 | P3_MyD88 Rank (before) [5, 17]: 1304

LNGAIRIFGANCVMR
P3_MAL Rank (after) [4, 18]: 534 | P3_MAL Rank (before) [4, 19]: 2194 | P3_MyD88 Rank (after) [5, 20]: 494 | P3_MyD88 Rank (before) [5, 21]: 2400

LQNQWKLALTKVANLSGW
Rank (after) [4]: 116 | Rank (before) [4]: 213 | Rank (after) [5, 10]: 98 | Rank (before) [5, 11]: 680

WKNALANIAEILGFEL
P8_MAL Rank (after) [4, 13]: 287 | P8_MAL Rank (before) [4, 14]: 1431 | Rank (after) ([5]; P8_MyD88: rank by count after grouping): 162 | Rank (before) ([5]; P8_MyD88: rank by count before grouping): 180 | Population [5, 15]: 0.00732%

SFFGINCVIICQRRS
Rank (after) [4]: 126 | Rank (before) [4]: 360 | P3_MyD88 Rank (after) [5, 20]: 545 | P3_MyD88 Rank (before) [5, 21]: 2934

LKWGDPYFWSKLRFA
Rank (after) [4]: 474 | Rank (before) [4]: 2222 | P3_MyD88 Rank (after) [5, 16]: 207 | P3_MyD88 Rank (before) [5, 17]: 1061

LKVESWRQALEKRAN
Rank (after) [4]: 122 | Rank (before) [4]: 331 | Rank (after) [5, 10]: 99 | Rank (before) [5, 11]: 383

LKVESWRDALTKVASL
Rank (after) [4]: 142 | Rank (before) [4]: 847 | Population [5, 12]: 0.0032%

RQIKIWFQNRRMKWKKWFYERLVSLILRDTKV [TDIP1]
Kd [7]: 2800 ± 460 nM | Kd [8]: 4490 ± 720 nM | remaining peptide after 48 h of incubation in human serum [1]: up to 50% | Kd [9]: 1460 ± 110 nM

LKWAIRIFGANCVMR
P3_MAL Rank (after) [4, 13]: 274 | P3_MAL Rank (before) [4, 14]: 844 | Rank (after) [5, 10]: 154 | Rank (before) [5, 11]: 1073

DSQSSRFKDDADLVG
P3_MAL Rank (after) [4, 18]: 511 | P3_MAL Rank (before) [4, 19]: 1972 | Rank (after) [5, 10]: 141 | Rank (before) [5, 11]: 635

SSFREGLWRLLELSKLRYAM
P3_MAL Rank (after) [4, 18]: 558 | P3_MAL Rank (before) [4, 19]: 3151 | P3_MyD88 Rank (after) [5, 20]: 517 | P3_MyD88 Rank (before) [5, 21]: 3173

RQIKIWFQNRRMKWKKLFFWESLKQLLRSDGR [TDIP6]
remaining peptide after 48 h of incubation in human serum [1]: up to 50%

RQIKIWFQNRRMKWKKLVAHEISKKMKIFATI [TDIP20]
half-life at 0.5 mM [1]: < 1 h
